Where two headings read alike, the source gives them in different places.
Experiments:
[1] = Multiple ascending-dose study, safety (adverse events); format: in vivo
Procedure: Three drug doses (10, 20 and 40 mg) were utilized. A total of 36 healthy subjects of both genders were assigned randomly to the three groups (n = 12), with10 subjects taking HEC113995PA·H2O tablets and 2 taking placebo. The participants in the 10 mg dose group received a single dose daily in the morning after overnight fasting, or a single dose daily after a standard meal in the 20 mg and 40 mg dose groups for 10 consecutive days. Serial blood samples were collected within 0.5 h before drug administration on days 7, 8 and 9, and before and after drug administration on days 1 and 10 to determine plasma concentration and pharmacokinetic characteristics. Safety and tolerability were evaluated on days 4, 8, 13 and 15.
The trial was conducted in a dose-escalation manner, with the administration of the next dose arm only after the tolerability and safety of the previous arm had been fully evaluated. Following the assessments by both the investigator and the sponsor, the next dose level could be reverted to the previous dose group if deemed necessary. In such cases, twelve new healthy subjects (10 taking HEC113995PA·H2O tablets and 2 taking placebo) were enrolled to explore the maximum safe tolerated dose. Throughout the entire trial (including the SAD trial, FE trial and MAD trial), each subject was only allowed to participate in one dose group.
(§1) Safety indicators were assessed through adverse events (AE), clinical laboratory tests (including blood routine, blood biochemistry, urine routine), vital signs monitoring (ear temperature), pulse, respiration and blood pressure in a sitting position), 12-lead electrocardiogram (ECG) and physical examinations. Adverse events (AE) and serious adverse events (SAE) were evaluated following the criteria outlined in National Cancer Institute Common Terminology Criteria for Adverse Events (NCI-CTCAE) version 5.0.
(§2) Any adverse events that occurred in all subjects during the clinical trial were recorded with the following details: AE name, occurrence time, end time, severity, whether it was classified as a SAE, severity criteria (if applicable), treatment measures and outcomes, actions taken on investigational drug due to the AE, and the causal relationship between the AE and administrated drug, etc. Each AE was recorded separately.
(§3) The subjects were under close monitoring at the clinical research center until the sample retention and safety evaluation were completed. During the safety trial, drug intolerance of a given dose was defined as follows: grade 2 or higher drug-related AEs occurred in more than half of the subjects, or grade 3 or higher drug-related AEs occurred in more than one quarter of the subjects. The dose escalation was halted after drug intolerance occurred.

[2] = Single ascending-dose study, safety (adverse events); format: in vivo, human
Procedure: The study comprised a total of 7 dose groups (2.5, 5, 10, 20, 40, 60, and 80 mg groups, respectively). The first dose group (2.5 mg) consisted of 8 subjects, with 6 receiving HEC113995PA·H2O and 2 receiving placebo. Dose groups 2–7 each included 10 subjects, with 8 subjects receiving HEC113995PA·H2O and 2 subjects receiving placebo. Male and female participants were randomly assigned to the groups. Serial blood samples were collected before and after drug administration to determine the plasma concentration of pharmacokinetics (PK) and to evaluate the pharmacokinetic characteristics. The time points of blood collection and safety evaluation of PK in the second to seventh dose groups were adjusted based on the results of the first dose group. Drug safety and tolerability were evaluated on day 2 and 4 in the first dose group and on day 4 and 7 in the second to seventh dose groups. The trial was conducted in a dose-escalation manner, with progression to the next dose arm only after the safety of the previous arm had been evaluated. In the fourth group (20 mg group), in addition to blood samples, urine and stool samples were also collected for in vivo drug metabolic transformation studies.
as §1, §2, §3

[3] = Acid-base ionization constants; format: physicochemical
Hygroscopicity = format: physicochemical; conditions: solid
rodent = assay: In vivo rodent studies (comparison with Vilazodone, sedation); conditions: rodent behavioral despair models; unpublished data
[4] = test system: other subtypes of 5-HT receptors, histamine receptors, and acetylcholine receptors; assay: In vitro affinities or activities to other receptors; format: binding
rats = assay: Behavioral despair models, rats; format: in vivo; conditions: single, multiple, and chronic administrations, unpublished data

With `Cc1nc(-c2cnc(N3CCN(CCCc4c[nH]c5ccc(C#N)cc45)CC3)nc2)sc1C(N)=O` [HEC113995PA·H2O] the “related TEAE: diarrhea” value ([1]; MAD 10 mg) was 2 cases, the “related TEAE: dizziness” value ([1]; MAD 10 mg) was 1 case and the “related TEAE: elevated blood triglycerides” value ([1]; MAD 10 mg) was 2 cases. The “related TEAE: nausea” value ([1]; MAD 10 mg) was 1 case, the “Grade 2 related AE: elevated blood triglycerides” value ([1]; MAD 10 mg group) was 1 case and the “related TEAE: elevated gamma-glutamyl transferase (γ-GT)” value ([1]; MAD 10 mg group) was 1 case. The “related TEAE: oral ulcer” value ([1]; MAD 10 mg group) was 2 cases, the “incidence of subjects experiencing TRAEs” value ([1]; MAD 10 mg group, 7 subjects) was 70.0% and the “incidence of subjects experiencing TEAE” value ([1]; MAD 10 mg group, 8 subjects) was 80.0%. The “related TEAE: diarrhea” value ([1]; MAD 20 mg) was 1 case, the “related TEAE: dizziness” value ([1]; MAD 20 mg) was 1 case and the “related TEAE: nausea” value ([1]; MAD 20 mg) was 3 cases. For the same compound, the “incidence of subjects experiencing TRAEs” value ([1]; MAD 20 mg group, 6 subjects) was 66.7%, the “incidence of subjects experiencing TEAE” value ([1]; MAD 20 mg group, 8 subjects) was 88.9% and the “related TEAE: dizziness” value ([1]; MAD 40 mg) was 4 cases. For the same compound, the “related TEAE: elevated blood triglycerides” value ([1]; MAD 40 mg) was 3 cases, the “related TEAE: nausea” value ([1]; MAD 40 mg) was 1 case and the “Grade 2 related AE: elevated blood cholesterol” value ([1]; MAD 40 mg group) was 1 case. For the same compound, the “Grade 2 related AE: elevated blood triglycerides” value ([1]; MAD 40 mg group) was 1 case, the “related TEAE: elevated gamma-glutamyl transferase (γ-GT)” value ([1]; MAD 40 mg group) was 1 case and the “incidence of subjects experiencing TRAEs” value ([1]; MAD 40 mg group, 6 subjects) was 60.0%. For the same compound, the “incidence of subjects experiencing TEAE” value ([1]; MAD 40 mg group, 8 subjects) was 80.0%, the “Grade 3 or higher TEAEs related to the investigational product” value ([1]; MAD trial) was “no Grade 3 or higher TEAEs” and the “related TEAE incidence: elevated gamma-glutamyl transferase (γ-GT)” value ([1]; MAD, 2/29) was 6.9%. For the same compound, the “related TEAE incidence: oral ulcer” value ([1]; MAD, 2/29) was 6.9%, the “related TEAE incidence: hyperuricemia” value ([1]; MAD, 2/29, both cases in the 40 mg group) was 6.9% and the “related TEAE incidence: diarrhea” value ([1]; MAD, 3/29) was 10.3%. For the same compound, the “related TEAE incidence: dry mouth” value ([1]; MAD, 3/29, all cases in the 10 mg group) was 10.3%, the “related TEAE incidence: headache” value ([1]; MAD, 3/29, exclusively observed in the 20 mg group) was 10.3% and the “related TEAE incidence: terminal insomnia” value ([1]; MAD, 3/29, limited to the 20 mg group) was 10.3%. For the same compound, the “related TEAE incidence: elevated blood triglycerides” value ([1]; MAD, 5/29) was 17.2%, the “related TEAE incidence: nausea” value ([1]; MAD, 5/29) was 17.2% and the “related TEAE incidence: dizziness” value ([1]; MAD, 6/29) was 20.7%. The “incidence of Grade 2 AEs related to the investigational product” value ([1]; MAD, HEC113995PA·H2O group, 3 cases) was 10.3%, the “incidence of subjects experiencing TRAEs” value ([1]; MAD, HEC113995PA·H2O trial group, 19 subjects, 48 TRAEs) was 65.5% and the “incidence of subjects experiencing TEAE” value ([1]; MAD, HEC113995PA·H2O trial group, 24 subjects, 85 incidents) was 82.8%. The tolerability ([1]; healthy Chinese subjects, multiple doses range 10–40 mg daily) was “well tolerated”, the “incidence of subjects experiencing TEAEs” value ([2]; SAD 2.5 mg group, 1 case) was 16.7% and the “incidence of subjects experiencing TEAEs” value ([2]; SAD 5 mg group, 3 cases) was 37.5%. For the same compound, the “number of subjects experiencing TEAEs” value ([2]; SAD 10 mg group) was 0 case, the “incidence of subjects experiencing TEAEs” value ([2]; SAD 20 mg group, 5 cases) was 62.5% and the “incidence of subjects experiencing TEAEs” value ([2]; SAD 40 mg group, 6 cases) was 75%. For the same compound, the “incidence of subjects experiencing TEAEs” value ([2]; SAD 60 mg group, 7 cases) was 87.5%, the “incidence of subjects experiencing TEAEs” value ([2]; SAD 80 mg group, 7 cases) was 87.5% and the “incidence of subjects experiencing TEAEs” value ([2]; SAD overall safety analysis set incl. placebo, 36 subjects) was 52.9%. The “incidence of subjects experiencing TRAE” value ([2]; SAD overall safety analysis set, 33 cases) was 48.5%, the “TRAE incidence: abdominal distension” value ([2]; SAD overall, 1 case) was 1.9% and the “TRAE incidence: elevated conjugated bilirubin” value ([2]; SAD overall, 1 case) was 1.9%. For the same compound, the “TRAE incidence: elevated serum bilirubin” value ([2]; SAD overall, 1 case) was 1.9%, the “TRAE incidence: elevated serum creatine phosphokinase” value ([2]; SAD overall, 1 case) was 1.9% and the “TRAE incidence: hyperuricemia” value ([2]; SAD overall, 5 cases) was 7.4%. For the same compound, the “TRAE incidence: nausea” value ([2]; SAD overall, 5 cases) was 7.4%, the “TRAE incidence: dizziness” value ([2]; SAD overall, 8 cases) was 11.8% and the “TRAE incidence: elevated triglycerides” value ([2]; SAD overall, 8 cases) was 11.8%. For the same compound, the “TRAE incidence: diarrhea” value ([2]; SAD overall, 13 cases) was 19.1%, the “severity of elevated conjugated bilirubin” value ([2]; SAD, CTCAE 5.0) was “grade 2” and the “severity of other TRAEs” value ([2]; SAD, CTCAE 5.0, spontaneously relieved without treatment) was “grade 1”. The tolerability ([2]; healthy Chinese subjects, single dose range 2.5–80 mg) was “well tolerated”, the pKa ([3]; read-out: acid-base ionization constant pKa1) was 6.46 and the pKa ([3]; read-out: acid-base ionization constant pKa2) was 7.37. The hygroscopicity (Hygroscopicity) was “slight hygroscopicity”, the “efficacy relative to HEC61139 (Vilazodone)” value (rodent) was “more potent efficacy” and the “higher affinities towards SERT and the 5-HT1A receptor than other receptors” value ([4]; in vitro selectivity) was “over 100 fold”. For the same compound, the “in vitro affinities or activities to other receptors” value ([4]; other 5-HT receptor subtypes, histamine and acetylcholine receptors, unpublished data) was “at the micromolar level” and the duration of immobility (rats) was “significantly reduce”.
